{"source": "ChEMBL document CHEMBL4422692", "about": "“Plant-Based Modulators of Endocannabinoid Signaling” (J Nat Prod, 2019)", "key": {"[1]": {"molecular_target": "T1, Cannabinoid receptor 1 (Homo sapiens, UniProt P21554)", "T1 sequence (P21554 whole entry)": "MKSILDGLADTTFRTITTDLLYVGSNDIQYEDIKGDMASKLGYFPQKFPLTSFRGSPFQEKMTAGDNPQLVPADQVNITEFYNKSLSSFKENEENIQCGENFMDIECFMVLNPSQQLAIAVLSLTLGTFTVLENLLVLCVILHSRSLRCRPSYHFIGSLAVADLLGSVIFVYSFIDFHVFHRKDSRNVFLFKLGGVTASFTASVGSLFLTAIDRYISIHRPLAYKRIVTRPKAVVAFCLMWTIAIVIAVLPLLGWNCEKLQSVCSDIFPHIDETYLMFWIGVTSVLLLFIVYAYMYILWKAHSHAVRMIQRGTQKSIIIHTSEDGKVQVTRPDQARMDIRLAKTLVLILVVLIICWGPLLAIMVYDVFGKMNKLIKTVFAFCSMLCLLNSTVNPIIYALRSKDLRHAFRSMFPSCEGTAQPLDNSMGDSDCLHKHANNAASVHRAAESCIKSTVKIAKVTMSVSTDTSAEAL", "assay": "Displacement of [3H]-CP55940 from CB1 receptor (unknown origin)"}, "[2]": {"molecular_target": "T2, Cannabinoid receptor 2 (Homo sapiens, UniProt P34972)", "T2 sequence (P34972 whole entry)": "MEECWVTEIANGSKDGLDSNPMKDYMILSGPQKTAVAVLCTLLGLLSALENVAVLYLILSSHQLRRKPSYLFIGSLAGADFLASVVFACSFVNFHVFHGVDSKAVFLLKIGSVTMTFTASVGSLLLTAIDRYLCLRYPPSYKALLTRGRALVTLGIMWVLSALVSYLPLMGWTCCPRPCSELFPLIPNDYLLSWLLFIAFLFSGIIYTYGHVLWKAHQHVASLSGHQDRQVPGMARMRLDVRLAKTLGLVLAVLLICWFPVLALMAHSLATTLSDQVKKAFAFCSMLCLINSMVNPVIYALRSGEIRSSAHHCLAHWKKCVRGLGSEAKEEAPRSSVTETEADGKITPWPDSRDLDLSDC", "assay": "Displacement of [3H]-CP55940 from CB2 receptor (unknown origin)"}, "[3]": {"molecular_target": "Cannabinoid receptor 2 (Mus musculus, UniProt P47936)", "sequence (P47936 whole entry)": "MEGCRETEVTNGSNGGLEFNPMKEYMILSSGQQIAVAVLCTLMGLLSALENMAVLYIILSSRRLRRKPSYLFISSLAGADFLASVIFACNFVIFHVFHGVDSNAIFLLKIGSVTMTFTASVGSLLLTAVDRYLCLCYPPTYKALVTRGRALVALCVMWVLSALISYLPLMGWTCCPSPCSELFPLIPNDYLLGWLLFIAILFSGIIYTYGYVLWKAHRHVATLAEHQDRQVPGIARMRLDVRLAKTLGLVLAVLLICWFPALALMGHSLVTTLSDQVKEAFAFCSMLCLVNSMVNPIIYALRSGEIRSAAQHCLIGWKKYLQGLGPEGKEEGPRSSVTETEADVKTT", "assay": "Displacement of [3H]-CP55940 from CB2 receptor in mouse spleen membranes after 60 mins by scintillation counting method", "assay_type": "cell membranes"}, "[4]": {"molecular_target": "Cannabinoid receptor 1 (Rattus norvegicus, UniProt P20272)", "sequence (P20272 whole entry)": "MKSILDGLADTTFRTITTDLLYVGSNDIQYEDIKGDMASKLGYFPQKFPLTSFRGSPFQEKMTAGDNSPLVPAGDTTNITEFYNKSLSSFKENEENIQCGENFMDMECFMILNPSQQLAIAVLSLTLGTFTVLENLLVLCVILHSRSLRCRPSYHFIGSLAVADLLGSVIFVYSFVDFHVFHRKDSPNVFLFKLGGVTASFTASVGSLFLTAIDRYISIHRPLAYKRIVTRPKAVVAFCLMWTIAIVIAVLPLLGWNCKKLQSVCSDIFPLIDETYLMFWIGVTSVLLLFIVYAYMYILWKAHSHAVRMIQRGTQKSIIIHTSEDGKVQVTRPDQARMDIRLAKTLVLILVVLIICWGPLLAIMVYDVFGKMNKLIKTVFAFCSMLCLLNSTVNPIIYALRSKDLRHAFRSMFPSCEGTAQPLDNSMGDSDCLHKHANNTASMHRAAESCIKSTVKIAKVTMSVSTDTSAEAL", "assay": "Displacement of [3H]-CP55940 from CB1 receptor in rat […] membranes after 60 mins by scintillation counting method", "assay_type": "cell membranes"}, "[5]": {"molecular_target": "T2, Cannabinoid receptor 2", "assay": "Displacement of [3H]-CP55940 from recombinant human CB2 receptor expressed in HEK293 cell membranes after 90 mins by scintillation counting method"}, "[6]": {"molecular_target": "T1, Cannabinoid receptor 1", "assay": "Displacement of [3H]-CP55940 from recombinant human CB1 receptor expressed in HEK293-EBNA cell membranes after 90 mins by scintillation counting method"}, "[7]": {"molecular_target": "T2, Cannabinoid receptor 2", "assay": "Displacement of [3H]-CP55940 from recombinant human CB2 receptor measured after 2 hrs by liquid scintillation counting method"}, "[8]": {"molecular_target": "Fatty acid-binding protein 5 (Homo sapiens, UniProt Q01469)", "sequence (Q01469 whole entry)": "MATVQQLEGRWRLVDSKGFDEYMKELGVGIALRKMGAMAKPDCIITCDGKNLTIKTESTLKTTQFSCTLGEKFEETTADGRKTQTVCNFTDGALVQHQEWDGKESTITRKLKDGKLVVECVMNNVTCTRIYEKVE", "assay": "Displacement of NBD-Stearate from recombinant human FABP5 measured after 30 mins by fluorescence polarization assay"}, "[9]": {"molecular_target": "T3, Fatty-acid amide hydrolase 1 (Homo sapiens) (UniProt O00519)", "T3 sequence (whole entry)": "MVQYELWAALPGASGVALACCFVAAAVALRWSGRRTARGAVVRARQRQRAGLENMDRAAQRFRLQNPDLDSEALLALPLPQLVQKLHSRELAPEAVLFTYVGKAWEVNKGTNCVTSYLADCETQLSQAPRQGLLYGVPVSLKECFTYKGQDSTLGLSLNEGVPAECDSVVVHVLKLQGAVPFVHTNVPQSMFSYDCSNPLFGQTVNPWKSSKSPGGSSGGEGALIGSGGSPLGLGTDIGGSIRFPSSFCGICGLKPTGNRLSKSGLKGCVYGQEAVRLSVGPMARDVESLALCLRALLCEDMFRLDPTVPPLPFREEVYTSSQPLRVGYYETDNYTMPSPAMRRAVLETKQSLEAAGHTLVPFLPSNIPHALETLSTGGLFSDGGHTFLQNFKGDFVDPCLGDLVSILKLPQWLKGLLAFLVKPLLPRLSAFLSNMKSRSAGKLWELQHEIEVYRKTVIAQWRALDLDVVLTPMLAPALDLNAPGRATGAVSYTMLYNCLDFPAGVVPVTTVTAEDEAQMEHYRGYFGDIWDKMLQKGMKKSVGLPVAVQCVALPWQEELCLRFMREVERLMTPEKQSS", "assay": "Inhibition of FAAH in human U937 cell homogenates at 100 uM using [14C]-AEA as substrate preincubated for 15 mins followed by substrate addition and measured after 15 mins by liquid scintillation counting method relative to control"}, "[10]": {"molecular_target": "T4, Fatty-acid amide hydrolase 1 (Homo sapiens, UniProt O00519)", "T4 sequence (O00519 whole entry)": "T3 sequence (whole entry)", "assay": "Inhibition of FAAH in human U937 cell homogenates using [14C]-AEA as substrate preincubated for 15 mins followed by substrate addition and measured after 15 mins by liquid scintillation counting method"}, "[11]": {"test_system": "U-937", "assay": "Inhibition of [14C]-AEA uptake in human U937 cells preincubated for 15 mins followed by [14C]-AEA addition and measured after 5 mins by scintillation counting method", "assay_type": "functional, cell-based"}, "[12]": {"molecular_target": "T1, Cannabinoid receptor 1", "assay": "Displacement of [3H]-CP55940 from recombinant human CB1 receptor measured after 2 hrs by liquid scintillation counting method"}, "[13]": {"molecular_target": "T5, Monoglyceride lipase (Homo sapiens, UniProt Q99685)", "T5 sequence (Q99685 whole entry)": "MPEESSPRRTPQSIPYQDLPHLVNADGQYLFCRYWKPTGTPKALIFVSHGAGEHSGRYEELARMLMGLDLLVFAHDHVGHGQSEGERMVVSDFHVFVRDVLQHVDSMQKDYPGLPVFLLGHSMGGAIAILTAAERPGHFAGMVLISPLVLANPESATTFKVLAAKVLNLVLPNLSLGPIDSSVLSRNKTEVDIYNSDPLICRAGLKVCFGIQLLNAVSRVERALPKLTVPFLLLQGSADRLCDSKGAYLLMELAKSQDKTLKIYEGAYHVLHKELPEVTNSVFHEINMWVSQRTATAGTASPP", "assay": "Inhibition of MAGL in human U937 cell homogenates using [3H]-2OG as substrate preincubated for 15 mins followed by substrate addition and measured after 15 mins by liquid scintillation counting method"}, "[14]": {"molecular_target": "T2, Cannabinoid receptor 2", "assay": "Displacement of [3H]-CP55940 from recombinant CB2 receptor (unknown origin) expressed in cell membranes after 90 mins by scintillation counting method"}, "[15]": {"molecular_target": "T2, Cannabinoid receptor 2", "assay": "Displacement of [3H]-CP55940 from recombinant human CB2 receptor expressed in HEK293 cell membranes measured after 90 mins"}}}
{"smiles": "Oc1cc(O)c2c(c1)O[C@H](c1cc(O)c(O)c(O)c1)[C@H](O)C2", "note": "[EPIGALLOCATECHIN]", "values": [{"measurement": "Ki", "setting": "[1]", "value": 35.7, "unit": "µM"}, {"measurement": "Ki", "setting": "[2]", "value": 361, "unit": "µM"}]}
{"smiles": "CCC/C=C\\CC/C=C/C=C/C(=O)NCC(C)C", "values": [{"measurement": "Ki", "setting": "[3]", "value": 8.38, "unit": "µM"}, {"measurement": "Ki", "setting": "[4]", "value": 11, "unit": "µM"}]}
{"smiles": "C/C=C\\C=C/CC/C=C/C=C/C(=O)NCC(C)C", "values": [{"measurement": "Ki", "setting": "[5]", "value": 0.057, "unit": "µM"}, {"measurement": "Ki", "setting": "[6]", "value": 6.21, "unit": "µM"}]}
{"smiles": "CC(C)CNC(=O)/C=C/C=C/CCCCCC/C=C/c1ccc2c(c1)OCO2", "note": "[GUINEENSINE]", "values": [{"measurement": "Ki", "setting": "[7]", "value": 38.3, "unit": "µM"}, {"measurement": "Ki", "setting": "[8]", "value": "> 100", "unit": "µM"}, {"measurement": "inhibition", "setting": "[9]", "value": 59, "unit": "%"}, {"measurement": "IC50", "setting": "[10]", "value": 46.8, "unit": "µM"}, {"measurement": "Efficacy", "setting": "[11]", "value": 65, "unit": "%"}, {"measurement": "EC50", "setting": "[11]; Homo sapiens, U-937", "value": 0.29, "unit": "µM"}, {"measurement": "Ki", "setting": "[12]", "value": "> 20", "unit": "µM"}, {"measurement": "Ki", "setting": "[13]", "value": "> 100", "unit": "µM"}]}
{"smiles": "O=C(O[C@@H]1Cc2c(O)cc(O)cc2O[C@@H]1c1cc(O)c(O)c(O)c1)c1cc(O)c(O)c(O)c1", "note": "[EPIGALOCATECHIN GALLATE]", "values": [{"measurement": "Ki", "setting": "[2]", "value": 42.8, "unit": "µM"}]}
{"smiles": "C#CC#CCCCC/C=C/C(=O)NCC(C)C", "values": [{"measurement": "Ki", "setting": "[5]", "value": "> 40", "unit": "µM"}, {"measurement": "Ki", "setting": "[6]", "value": "> 40", "unit": "µM"}]}
{"smiles": "C/C=C/C=C\\CC/C=C/C=C/C(=O)NCC(C)C", "values": [{"measurement": "Ki", "setting": "[14]", "value": 9.04, "unit": "µM"}]}
{"smiles": "CC#CC#CCCCC/C=C/C(=O)NCC(C)CC", "note": "(stereo unspecified)", "values": [{"measurement": "Ki", "setting": "[3]", "value": 7.2, "unit": "µM"}, {"measurement": "Ki", "setting": "[4]", "value": 6.73, "unit": "µM"}]}
{"smiles": "CC#CC#CCCCC/C=C/C=C/C(=O)NCC(C)C", "values": [{"measurement": "Ki", "setting": "[3]", "value": 1.87, "unit": "µM"}, {"measurement": "Ki", "setting": "[4]", "value": 24.6, "unit": "µM"}]}
{"smiles": "CC(C)=CCC/C(C)=C/Cc1c(O)cc(CCc2ccccc2)c(C(=O)O)c1O", "values": [{"measurement": "Ki", "setting": "[15]", "value": 0.828, "unit": "µM"}]}
{"smiles": "O=C(O[C@@H]1Cc2c(O)cc(O)cc2O[C@@H]1c1ccc(O)c(O)c1)c1cc(O)c(O)c(O)c1", "note": "[EPICATECHIN GALLATE]", "values": [{"measurement": "Ki", "setting": "[1]", "value": 47.3, "unit": "µM"}, {"measurement": "Ki", "setting": "[2]", "value": 95.6, "unit": "µM"}]}
{"smiles": "C/C=C\\C=C\\CC/C=C/C=C/C(=O)NCC(C)C", "values": [{"measurement": "Ki", "setting": "[14]", "value": 4.53, "unit": "µM"}]}
